Measurements reported in patent US20210308211A1, “METHOD OF TREATING VIRAL INFECTIONS” (priority 2020, published 2021).
Non-standard residues stand in square brackets, D forms with d. Residues, ends and D or L forms follow the SMILES beside them. pS = N[C@@H](COP(=O)(O)O)C(=O)O

Experiments:
[1] = tested on: MRL/lpr mice; assay: Gougerot-Sjögren syndrome model, salivary glands of MRL/lpr mice; type: in vivo, mouse
Experimental: In this study MRL/lpr female 11-12 week old mice were used with 10 mice per group for statistical analysis. Each mouse received a single injection by retro-orbital, 100 μg of peptide P140 of 100 μl in […]. After 5 days, the mouse blood was collected in heparinized tube and salivary glands (GSS) were removed and placed in Eppendorf tubes containing PBS pH 7.4.
The number of foci site (FS) is determined for each mouse. A focus is defined as an aggregate of 50 or more cells.
The level of inflammation SG is determined semiquantitatively by a scoring system (0-3 scale): Grade 0: no inflammatory cells; Grade 1: few perivascular inflammatory and periductal Infiltrates (<100 cells); Grade 2: moderate number of perivascular inflammatory and periductal Infiltrates (100-500 cells); Grade 3: extensive inflammation with inflammatory foci broad (>500 cells).
Cells of total salivary glands stained with fluorescently were labeled antibodies for 40 min at 4° C., Were Collected data by FACSCalibur.
The weight of salivary glands Was Measured after-excision. DNase I (1 mg/ml) and collagenase D (50 μg/ml) were used to digest the salivary glands. Total cell counts were evaluated after the digestion.
The MRL/lpr mice (10 mice per arm) were injected with peptide P140 (100 μl/mouse iv). Five days after injection the mice were sacrificed and SGs collected as indicated above. The tissue was cut by the cryostat sections of 5 μm. The sections were labeled with hematoxylin/eosin staining is the method most frequently used in tissue histology. The level of inflammation and the number of FS were determined (FIGS. 17 and 18). Representative pictures are from sample control group 4 and group Treated sample (Bar 500 μm).

[2] = tested on: peripheral T cells from lupus patients; details: cited from earlier work
[3] = tested on: C57BL/6 mice; assay: K/B×N serum transfer arthritis, preventive protocol; type: in vivo, mouse
Experimental: (§1) The TCR transgenic mice expressing the KRN and the MHC class II A^g7 molecule (K/B×N mice) have developed a severe inflammatory arthritis. The administration of serum of these mice to healthy recipient mice causes inflammatory arthritis over a period of about 15 days with a peak ignition around day 7 post-injection.
(§2) Two mouse serum administrations from K/B×N were performed (day 0 and day 2). The injection of serum (100 μl/mouse) is performed by intra-peritoneal (ip) injection in mice C57BL/6 (or B6) for 8 weeks (n=10); untreated mouse (n=10).
(§3) The P140 peptide (100 μg/100 μl; iv retro-orbital) was administered as follows:
(§4) Curative treatment: Injection at day 1 and day 4, to guide the peak of inflammatory disease. Preventive treatment: Injection at day −7 and day −2. Bleeding S0 (at day 0) is followed by bloodletting conducted every six days to dispose of serum. The study ends when inflammation has returned to its basal level, to around day 20 (see FIG. 19).
(§5) During the peak of inflammation, every day the animals are evaluated, and swelling score of articulation is established. It is ranged from 0 to 4 and based on a joint observation of the animal. In practice, this score is given for each leg (4 values) and these values are added together to get a general score that ranges from 0 to 16 (FIG. 20).

[4] = tested on: Raji cells; assay: Cellular uptake of fluorescent P140 in Raji cells (flow cytometry); type: cell-based, human; details: fluorescent peptide in 10% trehalose compared with 5.4% mannitol
From the text: FIG. 8. Cellular uptake of fluorescent P140 peptide in 5.4% mannitol or 10% trehalose in MRL/lpr B cells and Raji cells as visualized by flow cytometry. B cells were from 12-14 week-old MRL/lpr mice (primary cells); Raji cells are an established cell line derived in 1963 from B-lymphocyte of a patient with Burkitt's lymphoma.
For P140 peptide activity, HSC70 binding and endocytosis appear to be important. It is believed that endocytosis must occur through the clathrin route. This implies that peptide+excipient should have a size in the range of 30 to 500 nm in diameter. For example P140+mannitol are in the 100 nm region whereas P140+trehalose are below 10 nm and therefore not effective binding to HSC70. […] B cells were from 12-14 week-old MRL/lpr mice (primary cells); Raji cells are an established cell line derived in 1963 from B-lymphocyte of a patient with Burkitt's lymphoma. […] The confocal images show the late endosomal compartment where P140 localizes before homing into lysosomes; DAPI identifies DNA.

[5] = tested on: C57BL/6 mice; assay: DSS-induced colonic inflammation model; type: in vivo, mouse
From the text: Normal mice (C57BL/6; 7 week-old; males) have received the P140 peptide ([…], iv route; 10 mice) or saline only (control group; 10 mice) at days −2 and −1. At day 0, dextran sodium sulfate (DSS; 2-3%) was administrated to induce the disease.
Animals were examined every day for body weight loss, stool consistency, diarrhea, and blood in the feces. The animals were sacrificed around day 14 or at any time if they are very sick (loss >25% body weight). Statistics: Mann-Whitney (exact)

[6] = tested on: C57BL/6 mice; assay: K/B×N serum transfer arthritis, curative protocol; type: in vivo, mouse
Experimental: as §1, §2, §3, §4, §5

[7] = 5 days after one single iv injection
[8] = 5 days after one single iv injection, flow cytometry

SMILES: CC[C@H](C)[C@H](NC(=O)[C@H](Cc1ccccc1)NC(=O)[C@H](C)NC(=O)[C@H](Cc1ccc(O)cc1)NC(=O)CNC(=O)[C@H](CCCNC(=N)N)NC(=O)[C@@H]1CCCN1C(=O)[C@H](CCCCN)NC(=O)CNC(=O)[C@H](COP(=O)(O)O)NC(=O)[C@H](CCCNC(=N)N)NC(=O)[C@H](CCCCN)NC(=O)[C@H](CO)NC(=O)[C@H](Cc1ccc(O)cc1)NC(=O)[C@@H](NC(=O)[C@H](CCSC)NC(=O)[C@H](Cc1c[nH]cn1)NC(=O)[C@@H](NC(=O)[C@@H](N)CCCNC(=N)N)[C@@H](C)CC)C(C)C)C(=O)N[C@@H](CCC(=O)O)C(=O)N[C@@H](Cc1ccc(O)cc1)C(=O)O [Compound P140] (H-RIHMVYSKR[pS]GKPRGYAFIEY-OH; N-terminus and C-terminus assumed)
- Lymphocytic infiltration in the SGs ([1]; 5 days after one single administration, hematoxylin/eosin): significantly reduced
- Total number of cells present in the SGs [1, 7]: no apparent effect
- Weight of SGs (salivary glands) [1, 7]: no statistically significant effect
- CD4+T cells in SGs [1, 8]: decreased
- Total number of B cells in SGs [1, 8]: no statistically significant effect
- Proliferation of peripheral T cells from lupus patients ([2]; ex vivo (Monneaux et al., 2005)): does not induce proliferation
- Secretion of regulatory cytokine IL-10 in cell cultures ([2]; ex vivo, T cells from lupus patients (Monneaux et al., 2005)): high levels
- Clinical signs (swelling joints, weight loss, inflammation score) (in words) ([3]; K/B×N model): tend to be attenuated
- Weight loss ([3]; preventive protocol (injection day −7 and day −2), day 1 to day 7, controls 10%): 5%
- Increase in size of joints, right back legs ([3]; preventive protocol, day 0 to day 7, control mice about 22%): around 12%
- Increase in size of the joint, left hind paws ([3]; preventive protocol, day 0 to day 7, controls about 30%): about 15%
- General inflammation score, maximum ([3]; preventive protocol, sum of four legs, controls around 7, p=0.0156): ≤ 5
- Increase in size of articulation, left front leg ([3]; preventive protocol, controls 45%, P=0.0397): 20%
- Swelling in the joints of right front leg ([3]; preventive protocol, controls nearly 45%, p=0.0069): +20%
- Cellular uptake (flow cytometry) [4]: Much less cellular uptake
- DAI ([5]; P140 i.v. days −2 and −1 vs saline, p=0.5386): Little difference
- Colon size ([5]; P140 i.v. days −2 and −1 vs saline, reflects decrease of inflammation, p=0.0011): significant increase
- Body weight ([5]; between the two groups): No difference
- Day at which blood appeared in the feces ([5]; control groups day +6): +8 day
- Weight loss ([6]; curative protocol (injection day 1 and day 4), from day 2, NaCl 10%): 15%
- Weight gain ([6]; curative protocol, between day 5 and the end of the study, controls 5%): 20%
- Inflammation score, maximum ([6]; curative protocol, per rear leg, same for controls): ~1.5
